Laboratory results published in US20140243292A1, “SUBSITUTED 2-(CHROMAN-6-YLOXYL)-THIAZOLES AND THEIR USE AS PHARMACEUTICALS” (Sanofi, priority 2011, published 2014).
pIC50: −log10 of the molar value. Where a name gives a salt, the structure may show the parent alone.

Biological target: T1, human NCX1 (Homo sapiens, UniProt P32418)
T1 construct: expressed in transfected cells
Assay: NCX1 inhibition, reverse mode (Ca2+ influx into cells), FLIPR Fluo-4 assay
Assay type: cell-based
Conditions: NCX1 reverse mode; at 30 μM; read-out: Inhibition in % at 30 μM (NCX1rv; IC50 value not determined)
Method in brief: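 Max−min Fluo-4 fluorescence (520 nm, FLIPR, 240 points at 2 s) after 20 µM final gramicidin, which drives Na+ loading and reverse-mode Ca2+ entry, gave % inhibition and IC50. Test compound was preincubated 45 min at 16 °C with Fluo-4-loaded CHO cells stably expressing human NCX1, in pH 7.4 buffer containing 3.5 mM CaCl2 and probenecid.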

`O=C(O)CNC(=O)c1cnc(Oc2ccc3c(c2)CCC(c2cccnc2)O3)s1` (stereo not shown) [compound 260] and `CC(C)c1ccc(NC(=O)c2cnc(Oc3ccc4c(c3)CC[C@@H](c3ccccc3)O4)s2)cc1` [compound 280] are the same in inhibition at 30 µM: 38% for the first, 38% for the second.

Same assay, conditions: inhibition of NCX1 in reverse mode (Ca2+ influx into cells); read-out: NCX1rv IC50

`N[C@H]1C[C@@H]1NC(=O)c1cnc(Oc2ccc3c(c2)CC[C@@H](c2ccccc2)O3)s1` [compound 256] and `NC1C[C@@H]1NC(=O)c1cnc(Oc2ccc3c(c2)CC[C@@H](c2ccccc2)O3)s1` (stereo partly shown) [compound 284, hydrochloride] are within 0.2 log units of each other in pIC50: 6.52 for the first, 6.70 for the second.

Going from `NC1CC(NC(=O)c2cnc(Oc3ccc4c(c3)CC[C@@H](c3ccccc3)O4)s2)C1` (stereo partly shown) [compound 257] to `NC1CC(NC(=O)c2cnc(Oc3ccc4c(c3)CCC(c3cccnc3)O4)s2)C1` (stereo not shown) [compound 265, hydrochloride], the pIC50 falls from 6.40 to 5.14 (1.26 log units).

Compared with `OCCN(CCO)Cc1cnc(Oc2ccc3c(c2)CC[C@@H](c2ccccc2)O3)s1` [compound 258], `OCCN(CCO)Cc1cnc(Oc2ccc3c(c2)CCC(c2ccccc2)O3)s1` (stereo not shown) [compound 319] is 0.60 log units lower in pIC50: 6.70 for the first, 6.10 for the second. The first is the more potent here.

Compared with `O=C(c1cnc(Oc2ccc3c(c2)CCC(c2cccnc2)O3)s1)N1CCC[C@H]1CO` (stereo partly shown) [compound 259], `NCC1CCCN1C(=O)c1cnc(Oc2ccc3c(c2)CC[C@@H](c2ccccc2)O3)s1` (stereo partly shown) [compound 291] is 0.66 log units higher in pIC50: 5.74 for the first, 6.40 for the second.

Going from `CC[C@H](C)[C@H](NC(=O)c1cnc(Oc2ccc3c(c2)CCC(c2cccnc2)O3)s1)C(=O)OC` (stereo partly shown) [compound 261] to `CC[C@H](C)[C@H](NC(=O)c1cnc(Oc2ccc3c(c2)CCC(c2cccnc2)O3)s1)C(=O)O` (stereo partly shown) [compound 270], the pIC50 falls from 5.51 to 4.90 (0.61 log units). The first is the more potent here.

Compared with `CCOC(=O)[C@H](Cc1ccccc1)NC(=O)c1cnc(Oc2ccc3c(c2)CCC(c2cccnc2)O3)s1` (stereo partly shown) [compound 262], `O=C(N[C@@H](Cc1ccccc1)C(=O)O)c1cnc(Oc2ccc3c(c2)CCC(c2cccnc2)O3)s1` (stereo partly shown) [compound 271] is 1.18 log units lower in pIC50: 6.10 for the first, 4.92 for the second.

First: CCOC(=O)[C@@H](NC(=O)c1cnc(Oc2ccc3c(c2)CCC(c2cccnc2)O3)s1)C(C)C (stereo partly shown) [compound 263]
Second: CCOC(=O)[C@H](C)NC(=O)c1cnc(Oc2ccc3c(c2)CCC(c2cccnc2)O3)s1 (stereo partly shown) [compound 276]
The pIC50 of the first is 1.80 log units lower: 4.60 for the first, 6.40 for the second.

First: COC(=O)[C@@H](NC(=O)c1cnc(Oc2ccc3c(c2)CCC(c2cccnc2)O3)s1)C(C)(C)C (stereo partly shown) [compound 264]
Second: CC(C)(C)[C@H](NC(=O)c1cnc(Oc2ccc3c(c2)CCC(c2cccnc2)O3)s1)C(=O)O (stereo partly shown) [compound 273]
The pIC50 of the first is 0.51 log units higher: 5.51 for the first, 5.00 for the second. The first is the more potent here.

`OCCNCc1cnc(Oc2ccc3c(c2)CC[C@@H](c2ccccc2)O3)s1` [compound 266] and `OCCNCc1cnc(Oc2ccc3c(c2)CCC(c2ccccc2)O3)s1` (stereo not shown) [compound 311] are the same in pIC50: 7.00 for the first, 7.00 for the second.

First: N[C@H]1C[C@@H]1NC(=O)c1cnc(Oc2ccc3c(c2)CCC(c2cccnc2)O3)s1 (stereo partly shown) [compound 267, hydrochloride]
Second: CO[C@H]1CNC[C@@H]1NC(=O)c1cnc(Oc2ccc3c(c2)CCC(c2cccnc2)O3)s1 (stereo partly shown) [compound 269, hydrochloride]
The pIC50 of the first is 0.63 log units higher: 6.22 for the first, 5.59 for the second.

Going from `O=C(NC1C2CNCC21)c1cnc(Oc2ccc3c(c2)CCC(c2cccnc2)O3)s1` (stereo not shown) [compound 268] to `CC(C)[C@H](NC(=O)c1cnc(Oc2ccc3c(c2)CCC(c2cccnc2)O3)s1)C(=O)O` (stereo partly shown) [compound 272], the pIC50 falls from 5.60 to 4.81 (0.79 log units).

`Cc1cc(CNC(=O)c2cnc(Oc3ccc4c(c3)CC[C@@H](c3ccccc3)O4)s2)ccn1` [compound 274, hydrochloride] and `CCCNC(=O)c1cnc(Oc2ccc3c(c2)CC[C@@H](c2ccccc2)O3)s1` [compound 281] are within 0.2 log units of each other in pIC50: 6.40 for the first, 6.22 for the second.

`O=C(NCc1ccno1)c1cnc(Oc2ccc3c(c2)CCC(c2ccc(Cl)nc2)O3)s1` (stereo not shown) [compound 277, hydrochloride] and `O=C(NCc1ccnc(Cl)c1)c1cnc(Oc2ccc3c(c2)CCC(c2ccc(Cl)nc2)O3)s1` (stereo not shown) [compound 278, hydrochloride] are within 0.2 log units of each other in pIC50: 5.70 for the first, 5.89 for the second.

First: CC1(C)CN(C(=O)c2cnc(Oc3ccc4c(c3)CC[C@@H](c3ccccc3)O4)s2)CCN1 [compound 282]
Second: O=C(c1cnc(Oc2ccc3c(c2)CC[C@@H](c2ccccc2)O3)s1)N1CCC2(CCCNC2)C1 (stereo partly shown) [compound 290]
The pIC50 of the first is 0.30 log units lower: 5.92 for the first, 6.22 for the second.

First: O=C(c1cnc(Oc2ccc3c(c2)CC[C@@H](c2ccccc2)O3)s1)N1CC[C@H]2CNC[C@H]21 [compound 283, hydrochloride]
Second: NC1CCN(C(=O)c2cnc(Oc3ccc4c(c3)CC[C@@H](c3ccccc3)O4)s2)C1 (stereo partly shown) [compound 292]
The pIC50 of the first is 0.30 log units lower: 6.22 for the first, 6.52 for the second. The second is the more potent here.

`CN[C@H]1CN(C(=O)c2cnc(Oc3ccc4c(c3)CC[C@@H](c3ccccc3)O4)s2)CC[C@H]1C` [compound 285, hydrochloride] and `O=C(c1cnc(Oc2ccc3c(c2)CCC(c2ccccc2)O3)s1)N1CC[C@@H](O)C1` (stereo partly shown) [compound 298] are within 0.2 log units of each other in pIC50: 6.05 for the first, 6.22 for the second.

First: CN(C)CC1CN(C(=O)c2cnc(Oc3ccc4c(c3)CC[C@@H](c3ccccc3)O4)s2)CCO1 (stereo partly shown) [compound 286]
Second: O=C(c1cnc(Oc2ccc3c(c2)CCC(c2ccccc2)O3)s1)N1CCOCC1 (stereo not shown) [compound 314]
The pIC50 of the first is 1.18 log units lower: 5.82 for the first, 7.00 for the second.

`O=C(NCC1CCCCN1)c1cnc(Oc2ccc3c(c2)CC[C@@H](c2ccccc2)O3)s1` (stereo partly shown) [compound 287] and `O=C(NCCO)c1cnc(Oc2ccc3c(c2)CCC(c2ccccc2)O3)s1` (stereo not shown) [compound 295] are within 0.2 log units of each other in pIC50: 6.30 for the first, 6.40 for the second.

`O=C(c1cnc(Oc2ccc3c(c2)CC[C@@H](c2ccccc2)O3)s1)N1CCCCC1` [compound 288] and `O=C(c1cnc(Oc2ccc3c(c2)CCC(c2ccccc2)O3)s1)N1CCCCC1` (stereo not shown) [compound 316] are within 0.2 log units of each other in pIC50: 6.40 for the first, 6.30 for the second.

First: NC[C@@H]1[C@H]2CC[C@H](C2)[C@H]1NC(=O)c1cnc(Oc2ccc3c(c2)CC[C@@H](c2ccccc2)O3)s1 [compound 293]
Second: NC(=O)c1cnc(Oc2ccc3c(c2)CCC(c2ccccc2)O3)s1 (stereo not shown) [compound 339]
The pIC50 of the first is 0.40 log units lower: 6.00 for the first, 6.40 for the second. The second is the more potent here.

`COC(=O)CNC(=O)c1cnc(Oc2ccc3c(c2)CCC(c2ccccc2)O3)s1` (stereo not shown) [compound 294] and `CCOC(=O)CNC(=O)c1cnc(Oc2ccc3c(c2)CCC(c2ccccc2)O3)s1` (stereo not shown) [compound 308] are the same in pIC50: 6.70 for the first, 6.70 for the second.

Going from `Cc1noc(C)c1CCC(=O)NCc1cnc(Oc2ccc3c(c2)CC[C@@H](c2ccccc2)O3)s1` [compound 296] to `Cc1nn(C)c(C)c1CCC(=O)NCc1cnc(Oc2ccc3c(c2)CC[C@@H](c2ccccc2)O3)s1` [compound 297], the pIC50 falls from 6.40 to 5.96 (0.44 log units).

Compared with `Cc1ccccc1C1CCc2cc(Oc3ncc(C(=O)N4CC[C@@H](O)C4)s3)ccc2O1` (stereo partly shown) [compound 300], `Cc1ccccc1C1CCc2cc(Oc3nc(C)c(C(=O)N4CC[C@@H](O)C4)s3)ccc2O1` (stereo partly shown) [compound 336] is 0.48 log units lower in pIC50: 6.70 for the first, 6.22 for the second. The first is the more potent here.

Compared with `CS(=O)(=O)c1ccc(C2CCc3cc(Oc4ncc(C(=O)NCc5ccno5)s4)ccc3O2)cc1` (stereo not shown) [compound 301], `CCc1ccccc1C1CCc2cc(Oc3ncc(C(=O)NCc4ccno4)s3)ccc2O1` (stereo not shown) [compound 324] is 1.14 log units higher in pIC50: 5.16 for the first, 6.30 for the second.

Going from `NCC(=O)NCc1cnc(Oc2ccc3c(c2)CC[C@@H](c2ccccc2)O3)s1` [compound 302] to `N[C@@H](CO)C(=O)NCc1cnc(Oc2ccc3c(c2)CCC(c2ccccc2)O3)s1` (stereo partly shown) [compound 340, hydrochloride], the pIC50 falls from 6.40 to 6.05 (0.35 log units). The first is the more potent here.

`C[C@H](N)C(=O)NCc1cnc(Oc2ccc3c(c2)CC[C@@H](c2ccccc2)O3)s1` [compound 303] and `CC(C)NC(=O)c1cnc(Oc2ccc3c(c2)CCC(c2ccccc2)O3)s1` (stereo not shown) [compound 320] are the same in pIC50: 6.52 for the first, 6.52 for the second.

First: N[C@@H](Cc1ccccc1)C(=O)NCc1cnc(Oc2ccc3c(c2)CC[C@@H](c2ccccc2)O3)s1 [compound 304]
Second: O=C(NCc1cnc(Oc2ccc3c(c2)CCC(c2ccccc2)O3)s1)[C@@H]1CCCN1 (stereo partly shown) [compound 341, hydrochloride]
The pIC50 of the first is 0.33 log units lower: 5.72 for the first, 6.05 for the second.

Going from `O=C(NCC(O)CO)c1cnc(Oc2ccc3c(c2)CCC(c2ccccc2)O3)s1` (stereo not shown) [compound 305] to `CC(C)CNC(=O)c1cnc(Oc2ccc3c(c2)CCC(c2ccccc2)O3)s1` (stereo not shown) [compound 318], the pIC50 rises from 6.52 to 7.00 (0.48 log units). The second is the more potent here.

First: CC(C)(C)OC(=O)CNC(=O)c1cnc(Oc2ccc3c(c2)CCC(c2ccccc2)O3)s1 (stereo not shown) [compound 306]
Second: CC(C)OC(=O)CNC(=O)c1cnc(Oc2ccc3c(c2)CCC(c2ccccc2)O3)s1 (stereo not shown) [compound 307]
The pIC50 of the first is 0.40 log units lower: 6.30 for the first, 6.70 for the second. The second is the more potent here.

Compared with `O=C(NCc1ccno1)c1cnc(Oc2ccc3c(c2)CCC(c2cnccn2)O3)s1` (stereo not shown) [compound 309], `O=C(NCc1ccnc(Cl)c1)c1cnc(Oc2ccc3c(c2)CCC(c2cnccn2)O3)s1` (stereo not shown) [compound 310] is 0.26 log units higher in pIC50: 5.33 for the first, 5.59 for the second. The second is the more potent here.

`O=C(c1cnc(Oc2ccc3c(c2)CCC(c2ccccc2)O3)s1)N(CCO)CCO` (stereo not shown) [compound 312] and `CCCCNC(=O)c1cnc(Oc2ccc3c(c2)CCC(c2ccccc2)O3)s1` (stereo not shown) [compound 317] are the same in pIC50: 7.00 for the first, 7.00 for the second.

Compared with `CN1CCN(C(=O)c2cnc(Oc3ccc4c(c3)CCC(c3ccccc3)O4)s2)CC1` (stereo not shown) [compound 313], `CCc1ccccc1C1CCc2cc(Oc3ncc(C(=O)NCCN4CCNC4=O)s3)ccc2O1` (stereo not shown) [compound 322] is 0.44 log units lower in pIC50: 6.40 for the first, 5.96 for the second.

First: CCc1ccccc1C1CCc2cc(Oc3ncc(C(=O)NCCc4c(C)noc4C)s3)ccc2O1 (stereo not shown) [compound 323]
Second: CCCNC(=O)c1sc(Oc2ccc3c(c2)CCC(c2ccccc2C)O3)nc1C (stereo not shown) [compound 332]
The pIC50 of the first is 1.05 log units higher: 6.05 for the first, 5.00 for the second.

`Cc1ccccc1C1CCc2cc(Oc3ncc(CNC(=O)CN4C(=O)CNC4=O)s3)ccc2O1` (stereo not shown) [compound 328] and `Cc1ccccc1C1CCc2cc(Oc3nc(C)c(C(=O)NCCN4CCNC4=O)s3)ccc2O1` (stereo not shown) [compound 333] are within 0.2 log units of each other in pIC50: 6.05 for the first, 6.22 for the second.

`Cc1cccc(C)c1C1CCc2cc(Oc3ncc(C(=O)NCc4ccno4)s3)ccc2O1` (stereo not shown) [compound 331] and `Cc1cccc(C)c1C1CCc2cc(Oc3ncc(C(=O)NCCO)s3)ccc2O1` (stereo not shown) [compound 337] are within 0.2 log units of each other in pIC50: 5.26 for the first, 5.12 for the second.

In the case of `Cc1cccc(C)c1C1CCc2cc(Oc3ncc(C(=O)N(C)C)s3)ccc2O1` (stereo not shown) [compound 338], the pIC50 was 5.06.
